From US9062088B2, “CDK-inhibiting pyrrolopyrimidine carboxamide derivative or pharmaceutically acceptable salt thereof, and pharmaceutical composition containing the same as active ingredient for preventing or treating hepatocellular carcinoma” (SNU R&DB Foundation, priority 2010, dated 2015)
“And” between values parts separate entries of the source, which are not always exact repeats. Equal values may be shown once.

Assays:
Cdk2/cyclin A = target: T1, Cdk2/cyclin A (Homo sapiens, UniProt P24941); assay: In vitro kinase activity assay, histone H1 phosphorylation by Cdk2/cyclin A; assay type: biochemical; settings: for Phosphorylation (%) Cdk2: 0 nM = 100%
T1 construct: purchased Upstate
Description: (§1) To kinase assay buffer (50 mM Tris (pH 7.4), 10 mM magnesium chloride, 1 mM EGTA, 40 mM β-glycerophosphate, 0.1 mM Na3VO4, 1 mM DTT, 0.1 μg/mL leupeptin, 0.1 μg/mL pepstatin A, 0.1 μg/mL antipain and 1 mM phenylmethylsulfonyl fluoride) were added 5 μg histone H1 as a substrate, 20 ng Cdk1/cyclin B or 40 ng Cdk2/cyclin A recombinant protein (Upstate, NY, USA) as an enzyme, 2.5 μCi [γ-32P]ATP, and 100 μM MgAc/ATP. The total reaction volume was adjusted to 50 μl. The compound of Example 2 was added to the reaction mixture, followed by inducing kinase reaction at 30° C. for 20 minutes. Upon completion of the reaction, the reaction mixture proceeded to electrophoresis on 12% SDS-polyacrylamide gel. Phosphorylation levels of Cdk1 and Cdk2 over the concentrations of the compound of Example 2 were confirmed by autoradiography, and the results are shown in FIG. 1, FIG. 2, and Table 1.
(§2) The intensity of bands was analyzed by densitometry (GS-800, Bio-Rad).

[1] = Body weight of xenograft mice; assay type: in vivo, nude mice; settings: 4 mg/kg and 20 mg/kg intraperitoneal; FIG. 21
Description: (§3) Male nude mice at 5˜6 weeks were purchased from Central Lab. Animal Inc. (Republic of Korea). The mice were raised in the test animal laboratory at College of Pharmacy, Seoul National University. All the experiments with test animals were performed by the protocol set by Institute of Laboratory Animal Resources, Seoul National University. 1×10^7 cells of the human hepatocellular carcinoma cell line SNU-354 were suspended in 200 μl of PBS, which was injected into the right front paw of the mouse by subcutaneous injection, followed by observation until the xenograft tumor grew to 100±30 mm^3. The mice having tumors reaching the proper size were divided into three groups (n=8). One of the groups was used as the control (treated with vehicle) and the other two groups were treated with the compound of Example 2 at the concentrations of 4 mg/kg and 20 mg/kg respectively, once a day for 3 weeks (5 times/week) by intraperitoneal injection. The control group was treated with 5% ethanol and 30% polyethylene glycol 200 (Fluka, Netherlands). The administration schedule was marked on data. Tumor size, body weight and other conditions of the animal were observed every day until the tumor size reached 2000 mm^3. The tumor size was calculated by V=a×b×c×π/6 (a=long axis of the tumor, b=short axis of the tumor, c=height of the tumor). 33 days after the treatment, the mice were sacrificed. […]

[2] = test system: SNU-354 xenografted tumor; assay: SNU-354 cancer xenograft, tumor growth; assay type: in vivo; settings: 5 times/week for 3 weeks, nude mice
Description: as §3

p-Rb (Cdk2) = assay: Western blotting of p-Rb (Cdk2) in SNU-354 cells; assay type: cell-based, human
Description: SNU-354 cells were cultured in RPMI 1640 (Invitrogen, CA, USA) supplemented with 10% FBS (Invitrogen) and antibiotics/antimycotics (Invitrogen) in a 5% CO2 incubator at 37° C. […]
After treating the compound of Example 2 to SNU-354 cells, cell pellet was lysed with lysis buffer (0.5% triton X-100, 20 mM Tris-HCl (pH 7.5), 2 mM magnesium chloride, 1 mM DTT, 1 mM EGTA, 50 mM β-glycerophosphate, 25 mM sodium fluoride, 1 mM Na3VO4, 2 μg/mL leupeptin, 2 μg/mL pepstatin A, 100 μg/mL phenylmethylsulfonyl fluoride, and 1 μg/mL antipain) at 4° C. for 1 hour, followed by quantification of protein. A proper amount of protein was electrophoresed on SDS-PAGE gel and then transferred onto polyvinylidene difluoride membrane (Millipore Co., Bedford, Mass.). The membrane was reacted in inhibiting solution (PBS, 5% skim milk, 0.1% tween-20) at room temperature for 1˜2 hours. The membrane was reacted with the primary antibody (goat anti-phospho-Rb, rabbit anti-nucleolin) diluted in the inhibiting solution (1:1000). Then, the membrane was washed with PBST, followed by reaction with the proper secondary antibody (horseradish peroxidase (HRP) conjugated) at room temperature for 1 hour.

Cdk1/cyclin B = target: T2, Cdk1/cyclin B (Homo sapiens, UniProt P06493); assay: In vitro kinase activity assay, histone H1 phosphorylation by Cdk1/cyclin B; assay type: biochemical; settings: for Phosphorylation (%) Cdk1: 0 nM = 100%
T2 construct: purchased Upstate
Description: as §1, §2

T2 sequence (P06493 whole entry): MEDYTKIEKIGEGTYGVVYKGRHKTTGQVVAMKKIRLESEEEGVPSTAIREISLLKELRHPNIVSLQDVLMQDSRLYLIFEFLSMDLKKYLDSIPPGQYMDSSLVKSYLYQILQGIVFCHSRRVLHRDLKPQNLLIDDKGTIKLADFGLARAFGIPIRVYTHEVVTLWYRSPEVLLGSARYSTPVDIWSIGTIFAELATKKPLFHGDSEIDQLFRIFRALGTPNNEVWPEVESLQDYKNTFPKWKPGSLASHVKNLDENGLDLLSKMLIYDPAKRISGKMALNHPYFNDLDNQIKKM
T2 sequence (P14635 whole entry partner): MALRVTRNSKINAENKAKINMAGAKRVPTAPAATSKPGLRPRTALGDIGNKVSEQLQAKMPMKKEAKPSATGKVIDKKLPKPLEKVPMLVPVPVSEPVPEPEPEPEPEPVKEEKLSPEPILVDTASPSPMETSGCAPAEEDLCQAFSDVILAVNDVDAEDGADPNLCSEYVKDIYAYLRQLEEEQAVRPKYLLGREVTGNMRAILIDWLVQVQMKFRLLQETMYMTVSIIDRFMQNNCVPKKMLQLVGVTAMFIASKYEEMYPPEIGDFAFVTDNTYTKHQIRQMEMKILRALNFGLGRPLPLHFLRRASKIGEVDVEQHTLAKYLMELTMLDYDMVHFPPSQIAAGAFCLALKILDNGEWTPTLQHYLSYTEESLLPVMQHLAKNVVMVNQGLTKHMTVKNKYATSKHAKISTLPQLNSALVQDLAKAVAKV

Structure (SMILES): CC(C)C(=O)OC[C@@H]1O[C@H](n2cnc(N)c3c(C(N)=O)c(Br)nc2-3)[C@H](O)[C@H]1O [Example 2, ((2S,3R,4R,5S)-5-(4-amino-6-bromo-5-carbamoyl-1H-pyrrolo[2,3-d]pyrimidin-1-yl)-3,4-dihydroxy-tetrahydrofuran-2-yl)methyl isobutyrate]
- Phosphorylation (%) Cdk2 (Cdk2/cyclin A; 10 nM): 86.5%
- Phosphorylation (%) Cdk2 (Cdk2/cyclin A; 20 nM): 75.0%
- Phosphorylation (%) Cdk2 (Cdk2/cyclin A; 40 nM): 59.0%
- Phosphorylation (%) Cdk2 (Cdk2/cyclin A; 50 nM): 50%
- Phosphorylation (%) Cdk2 (Cdk2/cyclin A; 60 nM): 43.0%
- Phosphorylation (%) Cdk2 (Cdk2/cyclin A; 80 nM): 39.2%
- Phosphorylation (%) Cdk2 (Cdk2/cyclin A; 100 nM): 4.5%
- IC50 (Cdk2/cyclin A; histone H1 phosphorylation): 50 nM
- weight change of test animals [1]: no weight change
- growth of the tumor reduced at average, compared with the control ([2]; 4 mg/kg/day intraperitoneal): 15%
- growth of the tumor reduced at average, compared with the control ([2]; 20 mg/kg/day intraperitoneal): 47%
- Phosphorylation (%) p-Rb(Cdk2) (p-Rb (Cdk2); treatment time 6 (hours)): 3.6%
- Phosphorylation (%) p-Rb(Cdk2) (p-Rb (Cdk2); treatment time 12 (hours)): 2.7%
- Phosphorylation (%) p-Rb(Cdk2) (p-Rb (Cdk2); treatment time 18 (hours)): 0.6%
- Phosphorylation (%) p-Rb(Cdk2) (p-Rb (Cdk2); treatment time 24 (hours)): 0.3%
- Phosphorylation (%) Cdk1 (Cdk1/cyclin B; 10 nM): 100% and 99.4%
- Phosphorylation (%) Cdk1 (Cdk1/cyclin B; 20 nM): 92.2%
- Phosphorylation (%) Cdk1 (Cdk1/cyclin B; 40 nM): 74.1%
- Phosphorylation (%) Cdk1 (Cdk1/cyclin B; 50 nM): 50%
- Phosphorylation (%) Cdk1 (Cdk1/cyclin B; 60 nM): 41.6%
- Phosphorylation (%) Cdk1 (Cdk1/cyclin B; 80 nM): 15.3%
- Phosphorylation (%) Cdk1 (Cdk1/cyclin B; 100 nM): 4.3%
- IC50 (Cdk1/cyclin B; histone H1 phosphorylation): 50 nM
